The record followed here is patent US9061030B2, “sGC stimulators” (IRONWOOD PHARMACEUTICALS, INC., priority 2010, dated 2015).

The target in this test is T1, soluble guanylate cyclase (sGC) (Homo sapiens, UniProt Q02108+Q02153).
T1 construct: endogenously expressing soluble guanylate cyclase (sGC); endogenous in cells; host or cells: HEK293
T1 sequence (Q02153 1-619): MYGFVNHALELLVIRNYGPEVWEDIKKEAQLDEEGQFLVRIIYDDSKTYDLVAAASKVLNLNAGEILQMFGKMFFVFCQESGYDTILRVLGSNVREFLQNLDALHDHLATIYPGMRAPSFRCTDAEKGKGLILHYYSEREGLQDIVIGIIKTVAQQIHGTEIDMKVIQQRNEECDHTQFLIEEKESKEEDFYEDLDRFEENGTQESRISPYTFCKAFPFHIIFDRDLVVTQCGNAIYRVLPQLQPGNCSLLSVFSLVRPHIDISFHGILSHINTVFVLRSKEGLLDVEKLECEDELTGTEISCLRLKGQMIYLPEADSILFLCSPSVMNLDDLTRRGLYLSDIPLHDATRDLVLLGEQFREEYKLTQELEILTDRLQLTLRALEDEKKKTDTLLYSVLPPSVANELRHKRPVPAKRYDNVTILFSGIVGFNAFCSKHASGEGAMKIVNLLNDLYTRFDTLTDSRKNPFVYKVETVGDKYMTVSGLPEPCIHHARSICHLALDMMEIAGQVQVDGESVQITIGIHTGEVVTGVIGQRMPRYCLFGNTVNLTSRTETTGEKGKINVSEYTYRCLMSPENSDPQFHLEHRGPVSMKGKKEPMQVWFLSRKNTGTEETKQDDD
T1 sequence (Q02108 1-690): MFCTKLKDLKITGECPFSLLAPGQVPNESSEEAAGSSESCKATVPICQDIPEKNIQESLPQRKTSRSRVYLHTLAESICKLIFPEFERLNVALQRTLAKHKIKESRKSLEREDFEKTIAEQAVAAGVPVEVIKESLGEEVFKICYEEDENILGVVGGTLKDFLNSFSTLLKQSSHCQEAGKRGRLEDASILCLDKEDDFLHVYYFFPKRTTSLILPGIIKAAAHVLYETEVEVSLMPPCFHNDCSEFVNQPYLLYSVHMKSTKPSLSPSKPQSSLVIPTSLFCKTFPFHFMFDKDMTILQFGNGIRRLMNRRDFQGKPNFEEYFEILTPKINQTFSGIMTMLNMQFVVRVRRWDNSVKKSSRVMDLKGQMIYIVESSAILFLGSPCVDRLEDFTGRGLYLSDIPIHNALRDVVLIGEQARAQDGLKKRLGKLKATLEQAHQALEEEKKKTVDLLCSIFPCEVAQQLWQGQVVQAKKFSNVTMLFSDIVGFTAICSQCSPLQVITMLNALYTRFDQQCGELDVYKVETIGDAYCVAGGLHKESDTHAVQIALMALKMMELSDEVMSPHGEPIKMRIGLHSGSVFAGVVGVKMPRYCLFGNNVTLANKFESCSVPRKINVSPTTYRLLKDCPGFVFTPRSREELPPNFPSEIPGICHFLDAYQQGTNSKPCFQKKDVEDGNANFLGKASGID
The test is described as follows: sGC-HEK-cGMP assay. Type of test: cell-based. The following applies: HEK293 cells, 10 μM SNP, percentage of sGC activity obtained with positive control BAY 41-2272 (= 100%); for Emax at 10 µM: compound at 10 μM; for Emax at 30 µM: compound at 30 μM. In outline: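 HEK293 cells endogenously expressing sGC, preincubated 15 min at 37 °C with 0.5 mM IBMX, then exposed to compound plus 10 μM sodium nitroprusside for 10 min at 37 °C. Reaction stopped and cells lysed with 0.1 M HCl; cGMP quantified by LC/MS against a standard curve; EC50 from concentration-response curves.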

In turn, `Fc1ccccc1Cn1nc(-c2ncccn2)nc1-c1cocn1` [Compound I-46] returned an Emax at 10 µM of 20 to 40% and a maximal effect (Emax) at 30 µM of 20 to 40%.
On to `Nc1ccnc(-c2nc(-c3nccs3)n(Cc3ccccc3F)n2)c1` [Compound I-44], for which the Emax at 10 µM lay in the range of 40 to 60% and the Emax at 30 µM lay in the range of 60 to 80%.
For `Fc1ccc(-c2nc(-c3nccs3)n(Cc3ccccc3F)n2)nc1` [Compound I-38], the maximal response (Emax) at 10 µM fell in the range of 40 to 60% and the Emax at 30 µM lay in the range of 20 to 40%.
The corresponding values for `Nc1ccnc(-c2nc(-c3nccs3)n(Cc3ccccc3F)n2)n1` [Compound I-48, 2-(1-(2-fluorobenzyl)-5-(thiazol-2-yl)-1H-1,2,4-triazol-3-yl)pyrimidin-4-amine] are 40 to 60% and 60 to 80%.
Turning to `Nc1ccnc(-c2nc(-c3cscn3)n(Cc3ccccc3F)n2)c1` [Compound I-53, 2-(1-(2-fluorobenzyl)-5-(thiazol-4-yl)-1H-1,2,4-triazol-3-yl)pyridin-4-amine], the Emax at 10 µM was 40 to 60% and the maximal effect (Emax) at 30 µM lay in the range of 60 to 80%.
Take `Fc1ccccc1Cn1nc(-c2ccccn2)nc1-c1cscn1` [Compound I-4]: the Emax at 10 µM was 20 to 40% and the Emax at 30 µM lay in the range of 40 to 60%.
In turn, `Fc1ccccc1Cn1nc(-c2ccccn2)nc1-n1cncn1` [Compound I-50, 2′-(2-fluorobenzyl)-5′-(pyridin-2-yl)-2′H-1,3′-bi(1′,2′,4-triazole)] registered an Emax at 10 µM of 20 to 40% and an Emax at 30 µM of 20 to 40%.
Take `Fc1ccccc1Cn1nc(-c2cscn2)nc1-c1nccs1` [Compound I-40]: the Emax at 10 µM was in the range of 20 to 40% and the Emax at 30 µM lay in the range of 10 to 20%.
`Fc1ccccc1Cn1nc(-c2nccs2)nc1-c1cscn1` [Compound I-41] displayed an Emax at 10 µM of 40 to 60% and an Emax at 30 µM of 60 to 80%.
In the case of `Fc1ccccc1Cn1nc(-c2ccccn2)nc1-c1nccs1` [Compound I-25], the Emax at 10 µM is 20 to 40% and the Emax at 30 µM was in the range of 40 to 60%.
Take `COC(=O)N(C)c1c(N)nc(-c2nc(-c3nccs3)n(Cc3ccccc3F)n2)nc1N` [Compound I-61, methyl 4,6-diamino-2-(1-(2-fluorobenzyl)-5-(thiazol-2-yl)-1H-1,2,4-triazol-3-yl)pyrimidin-5-yl(methyl)carbamate]: the Emax at 10 µM lay within 20 to 40% and the Emax at 30 µM is 40 to 60%.
`Fc1ccccc1Cn1nc(-c2ccccn2)nc1-c1cocn1` [Compound I-12, 4-(1-(2-fluorobenzyl)-3-(pyridin-2-yl)-1H-1,2,4-triazol-5-yl)oxazole] yielded an Emax at 10 µM of 20 to 40% and an Emax at 30 µM of 40 to 60%.
As to `Fc1ccccc1Cn1nc(-c2ncccn2)nc1-c1cscn1` [Compound I-3], the Emax at 10 µM lay within 0 to 5% and the Emax at 30 µM was 20 to 40%.
In the case of `Fc1ccccc1Cn1nc(-c2ccccn2)nc1-c1ccccn1` [Compound I-1], the Emax at 10 µM fell in the range of 5 to 10% and the Emax at 30 µM was in the range of 20 to 40%.
`Fc1ccccc1Cn1nc(-c2ccccn2)nc1-c1ncco1` [Compound I-6] yielded an Emax at 10 µM of 20 to 40% and an Emax at 30 µM of 20 to 40%.
For the compound `Fc1ccccc1Cn1nc(-c2ncccn2)nc1-c1nccs1` [Compound I-30], the Emax at 10 µM lay in the range of 10 to 20% and the Emax at 30 µM was 20 to 40%.
